How the values were obtained:
[1] = test system: tryptophane hydroxylase; settings: 4-nitro-amphetamine: in 4 hours, still perceptive two weeks later; cited from earlier work
[2] = test system: serotonin; settings: 4-nitro-amphetamine: in 4 hours, still perceptive two weeks later; cited from earlier work
[3] = test system: mouse; test: Jumping effects with L-DOPA in mice which have received d-amphetamine; assay type: in vivo; settings: for jumping effects (in words): counted for 90 minutes, L-DOPA 100 mg/kg intraperitoneally
Experimental: (§1) The different tests which are carried out on mice by the known techniques comprise:
the jerking movements with L-DOPA.
(4) Jumping effects with L-DOPA

[4] = test system: mouse; test: Potentialisation of the group toxicity to amphetamine; assay type: in vivo
Experimental: as §1
the potentialisation of the group toxicity to amphetamine,
(3) Group toxicity in respect of amphetamine

[5] = test system: mouse; test: Action on the rectal temperature of the mouse (pGlu-His-dopamine); assay type: in vivo
Experimental: as §1
the action on the rectal temperature of the mouse,
(1) Action on the rectal temperature

[6] = test system: mouse; test: Anti-reserpine action (interaction with reserpine); assay type: in vivo
Experimental: as §1
the anti-reserpine action,
(2) Interaction with reserpine

[7] = Potentialisation of the toxicity of amphetamine by TRH; assay type: in vivo
[8] = test system: mouse; test: Study of the toxicity in the mouse; assay type: in vivo
Experimental: study of the toxicity in the mouse.
(§2) A comparison of these three substances, pGlu-Amph, pGlu-His-Amph and pGlu-His-Pro-Amph, with amphetamine, has been able to be carried out as follows; for this purpose, the products were administered systematically by intraperitoneal route and by oral route, it being possible for this latter procedure to verify the generally admitted assertion of a gastric hydrolysis of peptides; in this case, the action of the amphetamine should be integrally re-established.

[9] = test system: mouse; test: Action on the rectal temperature in the mouse (amphetamic pseudopeptides); assay type: in vivo; settings: for dose causing a hypothermia 30 minutes after injection: small doses
Experimental: action on the rectal temperature in the mouse.
as §2
A--Action on the rectal temperature in respect of the mouse

[10] = test system: rat; test: Induction of stereotype movements in the rat; assay type: in vivo
Experimental: induction of stereotypes in the rat,
as §2
B--Induction of stereotype movements

[11] = in vivo
[12] = intraperitoneal route, 400 mg/kg
[13] = intraperitoneal route, 600 mg/kg

CC(N)Cc1ccc(N)cc1 (centres unmarked) [4-amino-amphetamine, p-amino-amphetamine]
effect on the activity of the tryptophane hydroxylase [1]: not modified to any appreciable degree
effect on the amount of serotonin [2]: increase in the amount of serotonin

CC(N)Cc1ccc([N+](=O)[O-])cc1 (centres unmarked) [4-nitro-amphetamine, p-nitro-amphetamine]
effect on the activity of the tryptophane hydroxylase [1]: decrease in the activity of the tryptophane hydroxylase
effect on the amount of serotonin [2]: depletion of serotonin

NCCc1ccc(O)c(O)c1 [Dopamine, dopamine]
jumping effects (in words) [3]: no jumping effects are produced
time after the injection of amphetamine at which the effect is developed [4]: about 20 minutes
action on the rectal temperature (in words) [5]: hypothermal action, but the amplitude thereof is much smaller
effect on the reserpine fall in temperature [6]: small effect
effect on reserpine ptosis ([6]; effect not lasting): completely counteracts ptosis

N[C@@H](Cc1ccc(O)c(O)c1)C(=O)O [L-DOPA]
jumping effects (in words) [3]: numerous jumping actions
behavioural effect in amphetamine group toxicity test (in words) [4]: extreme agitation
action on the rectal temperature (in words) [5]: hypothermia
action on the effects of reserpine (temperature, ptosis) ([6]; 400 mg/kg intraperitoneally): antagonises the effects of the reserpine on the temperature and the dropping of the eyelids
action on the effects of reserpine ([6]; oral administration, same dosage (400 mg/kg)): not found

NC(=O)[C@@H]1CCCN1C(=O)[C@H](Cc1cnc[nH]1)NC(=O)[C@@H]1CCC(=O)N1 [TRH, pGlu-His-Pro-NH2]
effect on the toxicity of amphetamine ([7]; 25 mg/kg, subcutaneous application): potentialises the toxicity of the amphetamine

CC(N)Cc1ccccc1 (centres unmarked) [amphetamine, reference compound]
signs observed with toxic dosages ([8]; intraperitoneal route): general syndrome of excitation
LD50 of amphetamine ([7]; amphetamine alone): 17.8 mg/kg
LD50 of amphetamine ([7]; with TRH at 25 mg/kg by subcutaneous application): 5.7 mg/kg
dose from which a hyperthermia appears ([9]; intraperitoneal route): ≥ 4 mg/kg
time after which the temperature of the treated animals is again that of the controls ([9]; intraperitoneal route): 2 h
time of the maximum of the hyperthermia ([9]; intraperitoneal route): 30 min
dose causing a hypothermia 30 minutes after injection ([9]; intraperitoneal route): 1 mg/kg
action on the rectal temperature (in words) ([9]; oral route): substantially the same as when applied intraperitoneally
dose still causing a hypothermia ([9]; oral route): 4 mg/kg
dosage at which the maximum amplitude of stereotype movements is achieved ([10]; intraperitoneal route): 10 mg/kg
induction of stereotype movements (in words) ([10]; intraperitoneal route): causes stereotype movements
duration of the stereotype movements ([10]; intraperitoneal route, 10 mg/kg): ≤ 5 h
induction of stereotype movements (in words) ([10]; oral route): less significant intensity and of slightly longer duration than by the intraperitoneal route

CC(Cc1ccccc1)NC(=O)C1CCC(=O)N1 (centres unmarked) [pGlu-Amph, pGlu--Amph]
dosage causing mortality of 50% (LD50) ([8]; intraperitoneal route): about 40 mg/kg
signs observed with toxic dosages ([8]; intraperitoneal route): general syndrome of excitation
mortality (in words) ([8]; oral route, 30 mg/kg): does not cause any death
mortality ([8]; oral route, 100 mg/kg): 100%
action on the rectal temperature (in words) ([9]; intraperitoneal route): very close to that of amphetamine
dose from which a hyperthermia appears ([9]; intraperitoneal route): ≥ 10 mg/kg
period of the action compared with amphetamine ([9]; intraperitoneal route): the same
time of the maximum of the hyperthermia ([9]; intraperitoneal route): 60 min
dose causing a hypothermia 30 minutes after injection ([9]; intraperitoneal route): 5 mg/kg
action on the rectal temperature (in words) ([9]; oral route): modelled on that of the amphetamine
induction of stereotype movements (in words) ([10]; intraperitoneal route): completely identical with that of amphetamine
effect versus that produced by the equivalent amphetamine dose ([10]; intraperitoneal route, dose transformed into contained amphetamine): almost identical or is slightly smaller
doses versus doses of amphetamine producing a similar/equivalent effect ([10]; oral route): practically equivalent

CC(Cc1ccccc1)NC(=O)[C@@H]1CCCN1C(=O)[C@H](Cc1c[nH]cn1)NC(=O)[C@@H]1CCC(=O)N1 (stereo partly drawn) [pGlu-His-Pro-Amph, pGlu--His--Pro--Amph]
mortality ([8]; oral route, 1000 mg/kg): 25%
time to death ([8]; oral route, 1000 mg/kg): 48 h

pGlu--His--Amph [pGlu-His-Amph]
toxicity versus amphetamine (summary) ([8]; in vivo): less than that of amphetamine
mortality [8, 12]: 10%
time after which agitation is established [8, 12]: 30 min
dead mice [8, 13]: 6 mice out of 10
time to death [8, 13]: less than 30 minutes
time to death ([8]; intraperitoneal route, 800 mg/kg): less than 3 min
duration of stereotypic movements observed in the toxicity study ([8]; oral route): more than 24 hours
mice dead ([8]; oral route, 2400 mg/kg): 50%
immediate death ([8]; oral route, even with 2400 mg/kg): no longer observed
time of the maximum of the hypothermia ([9]; intraperitoneal administration): 1 h
action on the rectal temperature (in words) ([9]; intraperitoneal route): always produces a hypothermia
dose from which a hyperthermia appears ([9]; intraperitoneal route): above 50 mg/kg
time of the maximum of the hyperthermia ([9]; intraperitoneal route): approximately 3 hours
action on the rectal temperature (in words) ([9]; oral route): always causes a hypothermia followed by a hyperthermia proportional to the administered dose
time of the maximum of the hypothermia ([9]; oral route): 2 h
duration of action in the stereotyped movements test versus amphetamine (summary) ([10]; in vivo): much longer lasting action
dosage of contained amphetamine versus dosage of amphetamine causing an equal intensity of stereotypes ([10]; intraperitoneal route): three times greater
induction of stereotype movements (in words) ([10]; intraperitoneal route): also causes stereotypes
duration of the stereotype movements ([10]; intraperitoneal route, strongest dosage): exceeds 7 hours
duration of the stereotyped movements ([10]; oral route): 271/2
induction of stereotype movements (in words) ([10]; oral route): much greater effect as regards intensity and duration than when applied intraperitoneally
time the action takes to appear ([10]; oral route): about 3 hours

pGlu--His--DA [pGlu-His-dopamine]
delay in the occurrence of the jumping effects versus L-DOPA [3]: greater
total number of jumps recorded versus L-DOPA [3]: smaller than that with L-DOPA
jumping effects (in words) [3]: the same as with L-DOPA
behavioural effect in amphetamine group toxicity test (in words) [4]: identical with those of dopamine
action on the rectal temperature (in words) [5]: highly significant hypothermia
time of occurrence of the hypothermia ([5]; relatively high dosage): 15 min
action on the effects of reserpine (temperature, ptosis) ([6]; 400 mg/kg intraperitoneally): slightly counteracts simultaneously the ptosis and the fall in temperature
duration of the anti-reserpine action ([6]; 400 mg/kg intraperitoneally): less than 11/2
time of onset of the antioxotremorine action [11]: 15 min

— patent US4297346A, “Pseudopeptides used as medicaments” (priority 1976, dated 1981)
